Values of other authors as cited in article PMC12833858 (Journal of Medicinal Chemistry, 2026).

Assays:
Aurora A [1] = target: T1, Aurora A (Homo sapiens, UniProt O14965); set-up: method as in Adhikari et al.; conditions: isothermal titration calorimetry, n = 4; ref Adhikari et al.; read-out: KD Aurora A (ITC)
T1 sequence (O14965 1-403): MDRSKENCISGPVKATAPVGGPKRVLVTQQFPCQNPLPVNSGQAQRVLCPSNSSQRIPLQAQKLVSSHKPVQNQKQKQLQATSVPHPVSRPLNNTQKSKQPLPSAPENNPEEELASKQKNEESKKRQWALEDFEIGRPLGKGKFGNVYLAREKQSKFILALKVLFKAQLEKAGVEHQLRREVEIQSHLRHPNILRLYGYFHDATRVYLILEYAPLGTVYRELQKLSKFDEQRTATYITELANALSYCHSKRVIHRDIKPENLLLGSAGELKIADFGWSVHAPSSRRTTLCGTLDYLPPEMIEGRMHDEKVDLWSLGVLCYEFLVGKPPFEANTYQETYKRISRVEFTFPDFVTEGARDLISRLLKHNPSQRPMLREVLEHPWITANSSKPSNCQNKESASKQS

Aurora A [2] = target: T1, Aurora A; set-up: expressed in transfected cells; conditions: reported value, HiBiT assay in MV4-11 pediatric leukemia cells

In the case of COc1cc(Nc2ncc3c(n2)-c2ccc(Cl)cc2C(c2c(F)cccc2OC)=NC3)ccc1C(=O)NCCOCCOCCNC(=O)COc1cccc2c1C(=O)N(C1CCC(=O)NC1=O)C2=O (centres unmarked) [JB170], the Kd (Aurora A [1]) is given as 375 ± 22 nM and the DC50 (Aurora A [2]) is given as 28 nM.
